Experimental data as given in publication PMC8231969, “Characterization of Two NMN Deamidase Mutants as Possible Probes for an NMN Biosensor” (International Journal of Molecular Sciences, 2021).
Like-named read-outs stand apart in the source and are kept apart here.

B1: NMN deamidase (PncC) from E. coli, wild type (enzyme, UniProt P0A6G3 1-165, looked up)
chain: MTDSELMQLSEQVGQALKARGATVTTAESCTGGWVAKVITDIAGSSAWFERGFVTYSNEAKAQMIGVREETLAQHGAVSEPVVVEMAIGALKAARADYAVSISGIAGPDGGSEEKPVGTVWFAFATARGEGITRRECFSGDRDAVRRQATAYALQTLWQQFLQNT
notes: NMN deamidase PncC (EC 3.5.1.42), E. coli; the enzyme consists of 165 residues, 17.6 kDa; expressed from pCA24N-pncC; also called WT PncC; wild-type PncC; source: E. coli BL21(DE3), purified (HisTrap HP column, dialysis); not shown: His tag (from the HisTrap HP purification)
B2: S29A PncC (enzyme, E. coli, UniProt P0A6G3 1-165, looked up)
chain: MTDSELMQLSEQVGQALKARGATVTTAEACTGGWVAKVITDIAGSSAWFERGFVTYSNEAKAQMIGVREETLAQHGAVSEPVVVEMAIGALKAARADYAVSISGIAGPDGGSEEKPVGTVWFAFATARGEGITRRECFSGDRDAVRRQATAYALQTLWQQFLQNT
notes: NMN deamidase PncC (EC 3.5.1.42), E. coli; 165 residues; mutagenized pCA24N-pncC plasmid; also called PncC S29A mutant; source: E. coli BL21(DE3), purified (HisTrap HP column, dialysis); not shown: His tag (from the HisTrap HP purification)
B3: K61Q PncC (enzyme, E. coli, UniProt P0A6G3 1-165, looked up)
chain: MTDSELMQLSEQVGQALKARGATVTTAESCTGGWVAKVITDIAGSSAWFERGFVTYSNEAQAQMIGVREETLAQHGAVSEPVVVEMAIGALKAARADYAVSISGIAGPDGGSEEKPVGTVWFAFATARGEGITRRECFSGDRDAVRRQATAYALQTLWQQFLQNT
notes: NMN deamidase PncC (EC 3.5.1.42), E. coli; 165 residues; mutagenized pCA24N-pncC plasmid; also called PncC K61Q mutant; source: E. coli BL21(DE3), purified (HisTrap HP column, dialysis); not shown: His tag (from the HisTrap HP purification)

What was measured:
K61Q PncC = biological target: T1, K61Q PncC (Escherichia coli, UniProt P0A6G3, K61Q); type: binding, E. coli
T1 construct: made in house; host or cells: E. coli BL21(DE3)
Method: (§1) Experimental data were processed using the OriginPro 8.0 (OriginLab Corporation, Northampton, MA, USA). A non-linear curve analysis (Hill1 plot) was used for plotting the F0/F values in function of the metabolite concentration, to obtain the Kd value.
Percentage of the K61Q protein that would exist in complex with NMN in a cellular setting was calculated based on the Kd value, by using the equation: %=100/1+Kd/[NMN]

S29A PncC = biological target: T2, S29A PncC (Escherichia coli, UniProt P0A6G3, S29A); type: binding, E. coli
T2 construct: made in house; host or cells: E. coli BL21(DE3)
Text: as §1

[1] = tested on: glutamine binding protein (GlnBP); settings: GlnBP, high concentration of nucleotide
Method: Steady-state measurements were performed using an ISS_K2 fluorometer (ISS, Urbana-Champaign, IL, USA), equipped with a one-cell temperature-controlled sample holder. […] Excitation and emission slit widths were fixed at 0.5 and 1.0 nm, respectively. […] The nucleotides were added to reach the indicated final concentration (from 0.18 to 96 µM) with an incubation interval of 10 min. Triplicate readings were done for each experimental point. Experiments were repeated three times (for NMN and NaMN) or twice (for all the other metabolites). Controls experiments were performed using the E. coli Glutamine Binding Protein (GlnBP, 3µM), with increasing concentration of NMN or NaMN, at the same conditions.
Percentages of reduction of fluorescence intensities compared to buffer, were calculated as follow: (normalized fluorescence in presence of analyte at a given [µM]/normalized fluorescence in presence of corresponding volume of buffer) × 100.

[2] = biological target: the molecule itself; experiment: SEC; gel filtration on Superose 12 HR 10/30, 50 mM HEPES pH 7.5, 0.3 M NaCl, 1 mM TCEP; 45 ug wild type, 30 ug mutants; calibrated with protein standards; self-association (dimer)
[3] = nucleotide 96 µM (maximum quenching)

| Molecule | K61Q PncC fluorescence quenching (%) vs buffer (K61Q PncC; nucleotide 0.185 µM) | K61Q PncC fluorescence quenching (%) vs buffer (K61Q PncC; nucleotide 0.375 µM) | K61Q PncC fluorescence quenching (%) vs buffer (K61Q PncC; nucleotide 0.75 µM) | K61Q PncC fluorescence quenching (%) vs buffer (K61Q PncC; nucleotide 1.5 µM) | K61Q PncC fluorescence quenching (%) vs buffer (K61Q PncC; nucleotide 3 µM) | K61Q PncC fluorescence quenching (%) vs buffer (K61Q PncC; nucleotide 6 µM) | K61Q PncC fluorescence quenching (%) vs buffer (K61Q PncC; nucleotide 12 µM) | K61Q PncC fluorescence quenching (%) vs buffer (K61Q PncC; nucleotide 24 µM) | K61Q PncC fluorescence quenching (%) vs buffer (K61Q PncC; nucleotide 48 µM) | S29A PncC fluorescence quenching (%) vs buffer (S29A PncC; nucleotide 0.185 µM) | S29A PncC fluorescence quenching (%) vs buffer (S29A PncC; nucleotide 0.375 µM) | S29A PncC fluorescence quenching (%) vs buffer (S29A PncC; nucleotide 0.75 µM) | S29A PncC fluorescence quenching (%) vs buffer (S29A PncC; nucleotide 1.5 µM) | S29A PncC fluorescence quenching (%) vs buffer (S29A PncC; nucleotide 3 µM) | S29A PncC fluorescence quenching (%) vs buffer (S29A PncC; nucleotide 6 µM) | S29A PncC fluorescence quenching (%) vs buffer (S29A PncC; nucleotide 12 µM) | S29A PncC fluorescence quenching (%) vs buffer (S29A PncC; nucleotide 24 µM) | S29A PncC fluorescence quenching (%) vs buffer (S29A PncC; nucleotide 48 µM) | reduction of fluorescence of GlnBP [1] | stoichiometry N [2] | other results |
| --- | --- | --- | --- | --- | --- | --- | --- | --- | --- | --- | --- | --- | --- | --- | --- | --- | --- | --- | --- | --- | --- |
| NC(=O)c1cccnc1 [Nam, nicotinamide] | 0% | 0.34% | 0.87% | 0.68% | 0.91% | 0.26% | 1.15% | 1.04% | 1.14% | 0.08% | 0.18% | 0.48% | 1.49% | 2.51% | 2.65% | 3.29% | 3.29% | 3.71% | do not affect |  | S29A PncC fluorescence quenching (%) vs buffer (S29A PncC; [3]): 5.01% |
| NC(=O)c1ccc[n+]([C@@H]2O[C@H](CO)[C@@H](O)[C@H]2O)c1 [NR, nicotinamide riboside] | 2.13% | 2.97% | 3.37% | 3.71% | 3.13% | 2.36% | 2.7% | 2.1% | 1.79% | 0% | 0.12% | 0.80% | 0.96% | 1.84% | 1.98% | 2.29% | 3.13% | 3.51% | do not affect |  | S29A PncC fluorescence quenching (%) vs buffer (S29A PncC; [3]): 4.48% |
| Nc1ncnc2c1ncn2[C@@H]1O[C@H](COP(=O)(O)OP(=O)([O-])OC[C@H]2O[C@@H]([n+]3cccc(C(=O)O)c3)[C@H](O)[C@@H]2O)[C@@H](O)[C@H]1O [NaAD, nicotinic acid adenine dinucleotide] | 0.65% | 1.02% | 1.68% | 2.19% | 2.25% | 2.39% | 3.72% | 4.13% | 5.77% | 0% | 0% | 0% | 0% | 0% | 0% | 0% | 0% | 1.97% | 6.3% |  |  |
| NC(=O)c1ccc[n+]([C@@H]2O[C@H](COP(=O)(O)OP(=O)([O-])OC[C@H]3O[C@@H](n4cnc5c(N)ncnc54)[C@H](OP(=O)(O)O)[C@@H]3O)[C@@H](O)[C@H]2O)c1 [NADP] | 0% | 0.06% | 0.29% | 0.55% | 0.42% | 0% | 1.20% | 1.59% | 2.90% | 0% | 0% | 0.67% | 1.60% | 2.74% | 2.87% | 3.89% | 4.31% | 6.36% | 4.8% |  | K61Q PncC fluorescence quenching (%) vs buffer (K61Q PncC; nucleotide 96 µM): 5.1% |
| O=C(O)c1cccnc1 [Na, nicotinic acid] | 0.49% | 1.2% | 2.11% | 2.66% | 2.89% | 2.81% | 3.26% | 2.74% | 3.69% | 0% | 0% | 0% | 0% | 0% | 0% | 0% | 0.16% | 0.62% | do not affect |  |  |
| NC(=O)c1ccc[n+]([C@@H]2O[C@H](COP(=O)([O-])OP(=O)(O)OC[C@H]3O[C@@H](n4cnc5c(N)ncnc54)[C@H](O)[C@@H]3O)[C@@H](O)[C@H]2O)c1 [NAD, nicotinamide adenine dinucleotide] | 0.63% | 1.39% | 1.57% | 0.80% | 0.85% | 0% | 0.65% | 0.36% | 0.72% | 0.52% | 0.32% | 0.80% | 0% | 0.19% | 0.32% | 1.35% | 2.54% | 4.58% | 6.6% |  |  |
| B1 |  |  |  |  |  |  |  |  |  |  |  |  |  |  |  |  |  |  |  | 2 |  |
| B2 |  |  |  |  |  |  |  |  |  |  |  |  |  |  |  |  |  |  |  | 2 |  |
| B3 |  |  |  |  |  |  |  |  |  |  |  |  |  |  |  |  |  |  |  | 2 |  |
